Test results: US12404269B2, “Aminoquinazolinone and aminoisoquinolinone derivatives and application thereof” (ZHEJIANG UNIVERSITY, priority 2018, dated 2025)

Key:
PI3Kδ = target: T1, PI3Kδ (Homo sapiens, UniProt O00329); experiment: PI3Kδ molecular activity test (ADP-GLO); format: biochemical; details: recombinant protein
T1 construct: purchased Carna Bioscience
Procedure: (§1) Instrument: ELISA Reader Envision™ (PerkinElmer, USA)
(§2) Materials: Human recombinant PI3K and PI3Kδ proteins, purchased from Carna Bioscience; ADP-GLO kit, purchased from Promega.
(§3) Take the PI3Kα Molecular Activity Test as an Example to Describe the Text Method of the PI3K Subtypes
(§4) PI3K-α recombinant protein and substrate ATP were diluted with kinase reaction buffer (50 mM Tris-HCl, pH 7.4, 2.1 mM DTT, 0.05% Tween-20, 10 mM MgCl2). […] The specific reaction system was 2% of DMSO, 0.8 ng/μL PI3K-α, and 100 μM ATP, the positive compound control groups and control wells were set, and there were 3 multiple-wells for each concentration of each sample. After incubating for 2 hours at room temperature, ADP-GLO Reagent and Kinase Detection Reagent were added respectively, and then Envision™ was used to detect the […] readings. The activity rate of the samples were calculated by the sample readings, and the calculation formula was: activity rate=(ODcompound−ODcontrol)/(ODDMSO−ODcontro) ×100%.

PI3Kα = target: T2, PI3Kα (Homo sapiens, UniProt P42336); experiment: PI3Kα molecular activity test (ADP-GLO); format: biochemical; details: for Selectivity (PI3Kδ IC50/PI3KαIC50): PI3Kδ IC50/PI3Kα IC50; for IC50: recombinant protein, 100 μM ATP, 2 hours at room temperature
T2 construct: purchased Carna Bioscience
T2 sequence (P42336 whole entry): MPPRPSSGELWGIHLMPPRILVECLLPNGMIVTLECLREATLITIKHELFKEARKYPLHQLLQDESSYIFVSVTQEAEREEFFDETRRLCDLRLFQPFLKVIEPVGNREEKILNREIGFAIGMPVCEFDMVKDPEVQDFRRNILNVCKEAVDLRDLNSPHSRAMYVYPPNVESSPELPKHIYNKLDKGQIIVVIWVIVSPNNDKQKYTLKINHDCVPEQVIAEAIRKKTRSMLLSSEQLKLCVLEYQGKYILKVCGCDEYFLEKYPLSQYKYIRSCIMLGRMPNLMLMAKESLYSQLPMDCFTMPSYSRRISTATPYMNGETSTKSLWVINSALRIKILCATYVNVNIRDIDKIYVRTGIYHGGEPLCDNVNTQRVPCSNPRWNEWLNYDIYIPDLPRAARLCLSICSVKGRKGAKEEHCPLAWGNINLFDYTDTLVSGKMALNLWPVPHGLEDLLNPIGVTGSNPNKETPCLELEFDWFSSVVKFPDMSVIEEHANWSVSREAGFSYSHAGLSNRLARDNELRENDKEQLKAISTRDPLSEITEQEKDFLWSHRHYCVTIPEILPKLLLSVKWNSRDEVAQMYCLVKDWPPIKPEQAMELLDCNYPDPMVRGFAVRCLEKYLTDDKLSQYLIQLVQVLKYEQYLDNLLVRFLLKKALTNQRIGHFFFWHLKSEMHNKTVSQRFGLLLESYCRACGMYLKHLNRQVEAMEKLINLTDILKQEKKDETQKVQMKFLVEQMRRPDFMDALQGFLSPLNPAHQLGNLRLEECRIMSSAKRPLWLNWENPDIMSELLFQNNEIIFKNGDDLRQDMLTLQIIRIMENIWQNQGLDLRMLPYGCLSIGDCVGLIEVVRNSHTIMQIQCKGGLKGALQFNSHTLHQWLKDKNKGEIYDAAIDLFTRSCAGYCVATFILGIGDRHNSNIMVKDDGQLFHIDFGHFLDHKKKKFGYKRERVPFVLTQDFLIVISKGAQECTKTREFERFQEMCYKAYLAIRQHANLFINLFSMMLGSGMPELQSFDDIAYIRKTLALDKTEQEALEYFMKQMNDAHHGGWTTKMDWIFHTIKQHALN
T2 sequence (P27986 whole entry partner): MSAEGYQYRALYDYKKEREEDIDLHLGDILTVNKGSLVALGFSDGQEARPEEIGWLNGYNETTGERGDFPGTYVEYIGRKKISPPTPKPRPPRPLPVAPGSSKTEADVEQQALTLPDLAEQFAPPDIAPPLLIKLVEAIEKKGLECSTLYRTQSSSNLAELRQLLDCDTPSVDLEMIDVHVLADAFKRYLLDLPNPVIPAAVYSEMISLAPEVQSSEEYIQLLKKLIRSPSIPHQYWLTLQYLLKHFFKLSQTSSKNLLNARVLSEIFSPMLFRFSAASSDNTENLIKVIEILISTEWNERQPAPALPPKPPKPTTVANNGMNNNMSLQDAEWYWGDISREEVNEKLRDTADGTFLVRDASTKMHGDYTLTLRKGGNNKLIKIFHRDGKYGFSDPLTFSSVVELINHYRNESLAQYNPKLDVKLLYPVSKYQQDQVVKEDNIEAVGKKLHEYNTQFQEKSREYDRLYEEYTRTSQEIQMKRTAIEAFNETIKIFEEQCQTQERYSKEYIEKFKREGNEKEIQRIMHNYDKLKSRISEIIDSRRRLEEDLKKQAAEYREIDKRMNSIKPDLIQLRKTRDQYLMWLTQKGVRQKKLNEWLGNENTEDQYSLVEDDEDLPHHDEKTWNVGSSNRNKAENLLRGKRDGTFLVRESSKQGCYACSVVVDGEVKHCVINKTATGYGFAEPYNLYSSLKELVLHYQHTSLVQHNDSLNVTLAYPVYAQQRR
Procedure: as §1, §2, §3, §4

MCF7 (PIK3CA mut) = experiment: Tumor cell proliferation, CCK8 method, MCF7; format: cell-based, human; details: Homo sapiens; CCK8, MCF7; read-out: MCF7 (PIK3CA mut) proliferation IC50
Procedure: (§5) The IC50 value was calculated using Graphpad Prism V5.0 software.

KPL4 (PIK3CA mut) = experiment: Tumor cell proliferation, CCK8 method, KPL4; format: cell-based; details: CCK8, KPL4; read-out: KPL4 (PIK3CA mut) proliferation IC50
Procedure: as §5

ZR-75-1 (PTEN loss) = experiment: Tumor cell proliferation, CCK8 method, ZR-75-1; format: cell-based; details: Homo sapiens; CCK8, ZR-75-1
Procedure: as §5

SW48 (PIK3CA mut) = experiment: Tumor cell proliferation, CCK8 method, SW48; format: cell-based; details: Homo sapiens; CCK8, SW48; read-out: SW48 (PIK3CA mut) proliferation IC50
Procedure: as §5

T1 sequence (O00329 whole entry): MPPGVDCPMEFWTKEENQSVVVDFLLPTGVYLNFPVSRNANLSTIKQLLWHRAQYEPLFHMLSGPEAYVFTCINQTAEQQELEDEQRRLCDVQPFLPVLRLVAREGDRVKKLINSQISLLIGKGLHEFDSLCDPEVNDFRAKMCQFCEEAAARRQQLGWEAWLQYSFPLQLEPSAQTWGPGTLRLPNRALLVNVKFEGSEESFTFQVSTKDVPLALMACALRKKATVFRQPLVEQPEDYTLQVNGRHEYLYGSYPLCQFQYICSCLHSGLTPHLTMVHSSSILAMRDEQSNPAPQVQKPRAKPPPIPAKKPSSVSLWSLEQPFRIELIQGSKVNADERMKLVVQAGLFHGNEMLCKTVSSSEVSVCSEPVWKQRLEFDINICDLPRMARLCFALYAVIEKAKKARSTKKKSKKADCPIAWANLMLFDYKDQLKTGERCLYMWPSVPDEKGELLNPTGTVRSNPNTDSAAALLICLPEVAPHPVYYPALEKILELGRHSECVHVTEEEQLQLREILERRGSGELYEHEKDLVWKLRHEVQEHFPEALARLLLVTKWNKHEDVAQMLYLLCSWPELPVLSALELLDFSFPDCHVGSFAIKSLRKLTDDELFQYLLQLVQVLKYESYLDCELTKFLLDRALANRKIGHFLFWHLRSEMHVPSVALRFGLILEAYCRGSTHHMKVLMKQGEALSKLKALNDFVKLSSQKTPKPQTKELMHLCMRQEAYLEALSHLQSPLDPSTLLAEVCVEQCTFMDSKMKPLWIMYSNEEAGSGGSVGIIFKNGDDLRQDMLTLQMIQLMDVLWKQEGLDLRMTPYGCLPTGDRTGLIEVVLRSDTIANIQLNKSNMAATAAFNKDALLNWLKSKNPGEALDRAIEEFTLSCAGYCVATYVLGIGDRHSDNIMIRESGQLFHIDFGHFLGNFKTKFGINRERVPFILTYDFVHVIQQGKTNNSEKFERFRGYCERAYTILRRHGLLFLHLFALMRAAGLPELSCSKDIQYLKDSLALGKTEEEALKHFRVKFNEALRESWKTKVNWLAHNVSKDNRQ
T1 sequence (P27986 whole entry partner): as the sequence (P27986 whole entry partner) above

Row | Compound | IC50 (PI3Kδ) [nM] | Selectivity (PI3Kδ IC50/PI3KαIC50) (PI3Kα) | IC50 (PI3Kα) [nM] | IC50 (MCF7 (PIK3CA mut)) [nM] | IC50 (KPL4 (PIK3CA mut)) [nM] | IC50 (ZR-75-1 (PTEN loss)) [nM] | IC50 (SW48 (PIK3CA mut)) [nM]
1 | COc1c(O)ccc2c(=O)n(C)c(NC(=O)c3cnc(N)nc3)nc12 [7a, 2-Amino-N-(8-methoxy-3-methyl-7-hydroxy-4-oxo-3,4-dihydroquinazolinone-2-yl) pyrimidine-5-carboxamide] | 20 to 200 | III (“III” represents >10 times) | < 20 | – | – | – | –
2 | CCn1c(NC(=O)c2cnc(N)nc2)nc2c(OC)c(O)ccc2c1=O [7b, 2-amino-N-(3-ethyl-7-hydroxy-8-methoxy-4-oxo-3 ,4-dihydroquinazolin-2-yl) pyrimidine-5-carboxamide] | 20 to 200 | II (“II” represents 5-10 times) | < 20 | < 20 | 20 to 200 | 20 to 200 | < 20
3 | COc1c(O)ccc2c(=O)n(CC(F)(F)F)c(NC(=O)c3cnc(N)nc3)nc12 [7e, 2-amino-N-(3-trifluoroethyl-7-hydroxy-8-methoxy-4-oxo-3,4-dihydroquinazolin-2-yl) pyrimidine-5-carboxamide] | 20 to 200 | I (“I” represents <5 times) | 20 to 200 | – | – | – | –
4 | COc1c(O)ccc2c(=O)n(CC(F)F)c(NC(=O)c3cnc(N)nc3)nc12 [7f, 2-amino-N-(3-difluoroethyl-7-hydroxy-8-methoxy-4-oxo-3,4-dihydroquinazolin-2-yl) pyrimidine-5-carboxamide] | 20 to 200 | I (“I” represents <5 times) | 20 to 200 | – | – | – | –
5 | COc1c(OCCC(N)=O)ccc2c(=O)n(C)c(NC(=O)c3cnc(N)nc3)nc12 [8a-3] | 20 to 200 | III (“III” represents >10 times) | < 20 | < 20 | < 20 | < 20 | < 20
6 | CNC(=O)COc1ccc2c(=O)n(C)c(NC(=O)c3cnc(N)nc3)nc2c1OC [8a-4] | 20 to 200 | II (“II” represents 5-10 times) | < 20 | – | – | – | –
7 | COc1c(OCC(=O)N(C)C)ccc2c(=O)n(C)c(NC(=O)c3cnc(N)nc3)nc12 [8a-5] | 20 to 200 | II (“II” represents 5-10 times) | < 20 | – | – | – | –
8 | COc1c(OCC(=O)N2CCOCC2)ccc2c(=O)n(C)c(NC(=O)c3cnc(N)nc3)nc12 [8a-8] | 20 to 200 | II (“II” represents 5-10 times) | < 20 | – | – | – | –
9 | COc1c(OCCCC(N)=O)ccc2c(=O)n(C)c(NC(=O)c3cnc(N)nc3)nc12 [8a-9] | 20 to 200 | III (“III” represents >10 times) | < 20 | – | – | – | –
10 | COc1c(OCCCN2CCOCC2)ccc2c(=O)n(C)c(NC(=O)c3cncnc3)nc12 [8a-14] | 20 to 200 | II (“II” represents 5-10 times) | < 20 | – | – | – | –
11 | COc1c(OCCCN2CCOCC2)ccc2c(=O)n(C)c(NC(=O)c3ccnnc3)nc12 [8a-15] | 20 to 200 | II (“II” represents 5-10 times) | < 20 | – | – | – | –
12 | COc1c(OCCCN2CCOCC2)ccc2c(=O)n(C)c(NC(=O)c3ccc(N)nc3)nc12 [8a-16] | 20 to 200 | II (“II” represents 5-10 times) | < 20 | – | – | – | –
13 | CCOC(=O)COc1ccc2c(=O)n(C)c(NC(=O)c3cnc(N)nc3)nc2c1OC [8a-29] | 200 to 1000 | III (“III” represents >10 times) | < 20 | < 20 | 20 to 200 | 200 to 1000 | 20 to 200
14 | COc1c(OCCCN2CCOCC2)ccc2c(=O)n(C)c(NC(=O)c3cncnc3)cc12 [8a′-8] | 20 to 200 | III (“III” represents >10 times) | < 20 | – | – | – | –
15 | COc1c(OCCCN2CCOCC2)ccc2c(=O)n(C)c(NC(=O)c3ccnnc3)cc12 [8a′-9] | 20 to 200 | III (“III” represents >10 times) | < 20 | – | – | – | –
16 | CCn1c(NC(=O)c2cnc(N)nc2)nc2c(OC)c(OCCC(N)=O)ccc2c1=O [8b-3] | 20 to 200 | III (“III” represents >10 times) | < 20 | – | – | – | –

Row | Compound | IC50 (PI3Kδ) [nM] | Selectivity (PI3Kδ IC50/PI3KαIC50) (PI3Kα) | IC50 (PI3Kα) [nM] | IC50 (MCF7 (PIK3CA mut)) [nM] | IC50 (KPL4 (PIK3CA mut)) [nM] | IC50 (ZR-75-1 (PTEN loss)) [nM] | IC50 (SW48 (PIK3CA mut)) [nM]
17 | CCn1c(NC(=O)c2cncnc2)nc2c(OC)c(OCCCN3CCOCC3)ccc2c1=O [8b-14] | < 20 | II (“II” represents 5-10 times) | 20 to 200 | – | – | – | –
18 | CCn1c(NC(=O)c2cnc(N)nc2)cc2c(OC)c(OCCC(N)=O)ccc2c1=O [8b′-3] | 20 to 200 | III (“III” represents >10 times) | < 20 | – | – | – | –
19 | COc1c(OCC(N)=O)ccc2c(=O)n(C(C)C)c(NC(=O)c3cnc(N)nc3)nc12 [8c-2] | 20 to 200 | I (“I” represents <5 times) | 20 to 200 | – | – | – | –
20 | COc1c(OCCC(N)=O)ccc2c(=O)n(C(C)C)c(NC(=O)c3cnc(N)nc3)nc12 [8c-3] | 20 to 200 | I (“I” represents <5 times) | 20 to 200 | – | – | – | –
21 | COc1c(OCC(N)=O)ccc2c(=O)n(C3CC3)c(NC(=O)c3cnc(N)nc3)nc12 [8d-2] | 20 to 200 | I (“I” represents <5 times) | 20 to 200 | – | – | – | –
22 | COc1c(OCCCN2CCOCC2)ccc2c(=O)n(CC(F)F)c(NC(=O)c3cnc(N)nc3)nc12 [8f-1] | – | – | – | < 20 | 20 to 200 | 200 to 1000 | 20 to 200
23 | CCn1c(NC(=O)c2cnc(N)nc2)nc2c(OC(F)F)c(OCCCN3CCOCC3)ccc2c1=O [8g-1] | – | – | – | < 20 | 20 to 200 | 200 to 1000 | 20 to 200
24 | Cn1c(NC(=O)c2cnc(N)nc2)cc2c3c(ccc2c1=O)OCCO3 [14a′-2] | 20 to 200 | II (“II” represents 5-10 times) | < 20 | – | – | – | –
25 | Cn1c(NC(=O)c2cnc(N)nc2)cc2c3c(ccc2c1=O)OCCCCO3 [14a′-4] | 20 to 200 | II (“II” represents 5-10 times) | < 20 | – | – | – | –
26 | Cn1c(NC(=O)c2cnc(N)nc2)cc2c3c(ccc2c1=O)OCCOCCO3 [14a′-5] | 20 to 200 | II (“II” represents 5-10 times) | < 20 | – | – | – | –
27 | Cn1c(NC(=O)c2cnc(N)nc2)cc2c3c(ccc2c1=O)OCCOCCOCCO3 [14a′-6] | 20 to 200 | II (“II” represents 5-10 times) | < 20 | – | – | – | –
28 | Cn1c(NC(=O)c2cnc(N)nc2)cc2c3c(ccc2c1=O)OCCOCCOCCOCCO3 [14a′-7] | 20 to 200 | II (“II” represents 5-10 times) | < 20 | – | – | – | –
29 | CCn1c(NC(=O)c2cnc(N)nc2)cc2c3c(ccc2c1=O)OCCO3 [14b′-2] | < 20 | I (“I” represents <5 times) | < 20 | – | – | – | –
30 | CCn1c(NC(=O)c2cnc(N)nc2)cc2c3c(ccc2c1=O)OCCCCO3 [14b′-4] | 20 to 200 | I (“I” represents <5 times) | 20 to 200 | – | – | – | –
31 | Cc1nc(NC(=O)N2CCC[C@H]2C(N)=O)sc1-c1ccnc(C(C)(C)C(F)(F)F)c1 [Alpelisib, reference compound] | – | – | – | < 20 | 20 to 200 | 20 to 200 | 20 to 200
